According to PubChem BioAssay (NCI):
Where “and” joins values, the source holds several entries; their conditions need not be identical. Identical values can stand only once.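 Briefly, cells in 96-well plates were exposed to five compound concentrations for 48 h, and endpoints were estimated by linear interpolation. Here, GI50 denotes the concentration required for 50% inhibition of growth. At the TGI there is no net growth.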

Experiments:
Test in all cases: DTP human tumour cell line panel, 48 h; in the data active means GI50 below about 0.43 µM; inactive means the rest
MDA-MB-435 = tested on: MDA-MB-435
LOX IMVI melanoma = tested on: LOX IMVI melanoma
OVCAR-8 ovarian = tested on: OVCAR-8 ovarian
EKVX NSCLC = tested on: EKVX NSCLC
HOP-62 NSCLC = tested on: HOP-62 NSCLC
SNB-19 CNS = tested on: SNB-19 CNS
KM12 colon = tested on: KM12 colon
SF-539 CNS = tested on: SF-539 CNS
U251 CNS = tested on: U251 CNS
SF-268 CNS = tested on: SF-268 CNS
HS 578T breast = tested on: HS 578T breast
SR leukemia = tested on: SR leukemia
SF-295 CNS = tested on: SF-295 CNS
PC-3 prostate = tested on: PC-3 prostate
NCI/ADR-RES ovarian = tested on: NCI/ADR-RES ovarian
ACHN renal = tested on: ACHN renal
HCC-2998 colon = tested on: HCC-2998 colon
RPMI-8226 leukemia = tested on: RPMI-8226 leukemia
SK-MEL-28 melanoma = tested on: SK-MEL-28 melanoma
MOLT-4 leukemia = tested on: MOLT-4 leukemia
A549 NSCLC = tested on: A549 NSCLC
K-562 leukemia = tested on: K-562 leukemia
BT-549 breast = tested on: BT-549 breast
HCT-116 colon = tested on: HCT-116 colon
SN12C renal = tested on: SN12C renal
OVCAR-4 ovarian = tested on: OVCAR-4 ovarian
A498 renal = tested on: A498 renal
HCT-15 colon = tested on: HCT-15 colon
M14 melanoma = tested on: M14 melanoma
SK-MEL-5 melanoma = tested on: SK-MEL-5 melanoma
MDA-N = tested on: MDA-N
TK-10 renal = tested on: TK-10 renal
HOP-92 NSCLC = tested on: HOP-92 NSCLC
786-0 renal = tested on: 786-0 renal
DU-145 prostate = tested on: DU-145 prostate
UACC-62 melanoma = tested on: UACC-62 melanoma
HL-60(TB) leukemia = tested on: HL-60(TB) leukemia
NCI-H522 lung = tested on: NCI-H522 lung
IGROV1 ovarian = tested on: IGROV1 ovarian
OVCAR-3 ovarian = tested on: OVCAR-3 ovarian
UO-31 renal = tested on: UO-31 renal
MALME-3M melanoma = tested on: MALME-3M melanoma
NCI-H23 lung = tested on: NCI-H23 lung
NCI-H226 lung = tested on: NCI-H226 lung
SK-OV-3 ovarian = tested on: SK-OV-3 ovarian
HT29 colon = tested on: HT29 colon
RXF 393 renal = tested on: RXF 393 renal
COLO 205 colon = tested on: COLO 205 colon
CAKI-1 renal = tested on: CAKI-1 renal
T-47D breast = tested on: T-47D breast
SW-620 colon = tested on: SW-620 colon
SNB-75 CNS = tested on: SNB-75 CNS
NCI-H460 lung = tested on: NCI-H460 lung
MDA-MB-231 breast = tested on: MDA-MB-231 breast
OVCAR-5 ovarian = tested on: OVCAR-5 ovarian
MCF7 breast = tested on: MCF7 breast
SK-MEL-2 melanoma = tested on: SK-MEL-2 melanoma
CCRF-CEM leukemia = tested on: CCRF-CEM leukemia
UACC-257 melanoma = tested on: UACC-257 melanoma

CNC(=O)CCC(NC(=O)OC(C)(C)C)C(=O)NC(Cc1ccc(NC(=O)CCCCC(C)=O)cc1)C(=O)NCC(=O)NC (stereo unspecified)
> 100 µM: TGI (MDA-MB-435) | TGI (LOX IMVI melanoma) | TGI (OVCAR-8 ovarian) | TGI (EKVX NSCLC) | TGI (HOP-62 NSCLC) | TGI (SNB-19 CNS) | TGI (KM12 colon) | TGI (SF-539 CNS) | TGI (U251 CNS) | TGI (SF-268 CNS) | TGI (HS 578T breast) | TGI (SR leukemia) | TGI (SF-295 CNS) | TGI (PC-3 prostate) | TGI (NCI/ADR-RES ovarian) | TGI (ACHN renal) | TGI (HCC-2998 colon) | TGI (RPMI-8226 leukemia) | TGI (SK-MEL-28 melanoma) | TGI (MOLT-4 leukemia) | TGI (A549 NSCLC) | TGI (K-562 leukemia) | TGI (BT-549 breast) | TGI (HCT-116 colon) | TGI (SN12C renal) | TGI (OVCAR-4 ovarian) | TGI (A498 renal) | TGI (HCT-15 colon) | TGI (M14 melanoma) | TGI (SK-MEL-5 melanoma) | TGI (MDA-N) | TGI (TK-10 renal) | TGI (HOP-92 NSCLC) | TGI (786-0 renal) | TGI (DU-145 prostate) | TGI (UACC-62 melanoma) | TGI (HL-60(TB) leukemia) | TGI (NCI-H522 lung) | TGI (IGROV1 ovarian) | TGI (OVCAR-3 ovarian) | TGI (UO-31 renal) | TGI (MALME-3M melanoma) | TGI (NCI-H23 lung) | TGI (NCI-H226 lung) | TGI (SK-OV-3 ovarian) | TGI (HT29 colon) | TGI (RXF 393 renal) | TGI (COLO 205 colon) | TGI (CAKI-1 renal) | TGI (T-47D breast) | TGI (SW-620 colon) | TGI (SNB-75 CNS) | TGI (NCI-H460 lung) | TGI (MDA-MB-231 breast) | TGI (OVCAR-5 ovarian) | TGI (MCF7 breast)

COc1ccc2c(c1OC)CN1CCc3cc4c(cc3C1C2)OCO4 (stereo unspecified)
> 100 µM: TGI (MDA-MB-435) | TGI (SK-MEL-2 melanoma) | TGI (LOX IMVI melanoma) | TGI (OVCAR-8 ovarian) | TGI (EKVX NSCLC) | TGI (HOP-62 NSCLC) | TGI (SNB-19 CNS) | TGI (KM12 colon) | TGI (SF-539 CNS) | TGI (U251 CNS) | TGI (CCRF-CEM leukemia) | TGI (SF-268 CNS) | TGI (HS 578T breast) | TGI (SR leukemia) | TGI (SF-295 CNS) | TGI (PC-3 prostate) | TGI (NCI/ADR-RES ovarian) | TGI (ACHN renal) | TGI (HCC-2998 colon) | TGI (RPMI-8226 leukemia) | TGI (SK-MEL-28 melanoma) | TGI (MOLT-4 leukemia) | TGI (A549 NSCLC) | TGI (K-562 leukemia) | TGI (BT-549 breast) | TGI (HCT-116 colon) | TGI (SN12C renal) | TGI (OVCAR-4 ovarian) | TGI (A498 renal) | TGI (HCT-15 colon) | TGI (M14 melanoma) | TGI (SK-MEL-5 melanoma) | TGI (MDA-N) | TGI (TK-10 renal) | TGI (HOP-92 NSCLC) | TGI (UACC-257 melanoma) | TGI (786-0 renal) | TGI (DU-145 prostate) | TGI (UACC-62 melanoma) | TGI (HL-60(TB) leukemia) | TGI (NCI-H522 lung) | TGI (IGROV1 ovarian) | TGI (OVCAR-3 ovarian) | TGI (UO-31 renal) | TGI (MALME-3M melanoma) | TGI (NCI-H23 lung) | TGI (NCI-H226 lung) | TGI (SK-OV-3 ovarian) | TGI (HT29 colon) | TGI (COLO 205 colon) | TGI (CAKI-1 renal) | TGI (T-47D breast) | TGI (SW-620 colon) | TGI (SNB-75 CNS) | TGI (NCI-H460 lung) | TGI (MDA-MB-231 breast) | TGI (OVCAR-5 ovarian) | TGI (MCF7 breast)
inactive: GI50 (CCRF-CEM leukemia) > 100 µM | GI50 (HT29 colon) 30.8 µM and 76.1 µM
